{"source": "the NIST ThermoML archive (doi:10.1016/j.jct.2010.10.009)", "conditions": "298.15 K; Crystal; Vacuum Sublimation Drop (Calvet Microcalorimeter)", "note": "Numbers after ± are expanded uncertainties.", "data": [{"smiles": "c1ccc2c(c1)CCc1ccccc1C2", "note": "[1,2:4,5-dibenzocycloheptane]", "values": [{"measurement": "molar enthalpy of sublimation", "result": "24.8 ± 0.956", "unit": "kcal/mol"}]}]}
